Assay results: patent publication US9399631B2, “Polyphenol proteasome inhibitors, synthesis, and methods of use” (UNIVERSITY OF SOUTH FLORIDA, priority 2003, dated 2016)
Where a SMILES comes first, the peptide text is derived from it. [ ]: non-standard residue; d: D form. Nle = CCCC[C@H](N)C(=O)O

How the values were obtained:
[1] = molecular target: T1, 20S eukaryotic proteasome (Oryctolagus cuniculus, UniProt G1T4Q9); assay: Inhibition of chymotrypsin-like activity of purified eukaryotic 20S proteasome (Suc-Leu-Leu-Val-Tyr-AMC); type: biochemical, rabbit
T1 construct: purchased BOSTON BIOCHEM (Cambridge, Mass.)
T1 sequence (G1T4Q9 1-263): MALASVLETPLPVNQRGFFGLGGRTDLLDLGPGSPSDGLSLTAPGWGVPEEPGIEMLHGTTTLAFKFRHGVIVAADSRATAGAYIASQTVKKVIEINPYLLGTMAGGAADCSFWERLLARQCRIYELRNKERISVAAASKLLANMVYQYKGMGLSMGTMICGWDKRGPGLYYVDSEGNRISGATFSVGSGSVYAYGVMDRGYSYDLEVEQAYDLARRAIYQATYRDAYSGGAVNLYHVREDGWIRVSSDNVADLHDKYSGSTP
Experimental: Materials. Highly purified tea polyphenols (−)-EGCG (>95%), (−)-GCG (>98%), (−)-ECG (>98%), (−)-CG (>98%), fetal calf serum, propidium iodide, 3-[4,5-dimethylthiazol-2-yl]-2,5-diphenyltetrazolium bromide (MTT), RNase A, and DMSO were purchased from Sigma (St. Louis, Mo.). (+)-EGCG, benzyl-protected-(+)-EGCG, (+)-GCG, (−)-EGCG-amide, and (+)-EGCG-amide were prepared by enantioselective synthesis (see below). Purified 20S eukaryotic proteasome from rabbit was purchased from BOSTON BIOCHEM (Cambridge, Mass.). Purified 20S prokaryotic proteasome (Methanosarcina thermophile, Recombinant, E. coli) was purchased from CALBIOCHEM (La Jolla, Calif.). Fluorogenic peptide substrates Suc-Leu-Leu-Val-Tyr-AMC (for the proteasomal chymotrypsin-like activity) was obtained from Calbiochem (La Jolla, Calif.). RPMI 1640 medium, Dulbecco's modified Eagle's medium, MEM non-essential amino acids solution, MEM-sodium pyruvate solution, penicillin, and streptomycin were from INVITROGEN (Carlsbad, Calif.). Monoclonal antibody to p27^Kip was purchased from PHARMINGEN (San Diego, Calif.); polyclonal antibodies to IκB-α, Bax and actin, and monoclonal antibody to ubiquitin were from SANTA CRUZ Biotechnology Inc. (Santa Cruz, Calif.).
(§1) Inhibition of purified 20S proteasome activity by natural or synthetic GTPs. Purified prokaryotic (0.5 μg) or eukaryotic (0.02 μg) 20S proteasome was incubated with 20 μM fluorogenic peptide substrate, Suc-Leu-Leu-Val-Tyr-AMC for 30 min at 37° C. in […] of assay buffer (50 mM Tris-HCl, pH 7.5), with or without a natural or synthetic tea polyphenol. After incubation, production of hydrolyzed 7-amido-4-methyl-coumarin (AMC) groups was measured using a multi-well plate VERSAFLUOR Fluorometer with an excitation filter of 380 nm and an emission filter of 460 nm (BIO-RAD), and a multi-well plate reader Wallac 1420 VICTORTM^2 with an excitation filter of 355 nm and an emission filter of 460 nm (EG&G WALLAC).
Purified prokaryotic (0.5 μg) or eukaryotic (0.02 μg) 20S proteasome was incubated with 20 μM fluorogenic peptide substrate, Suc-Leu-Leu-Val-Tyr-AMC for 30 minutes at 37° C. in 100 μl of assay buffer ([…] Tris-HCl, pH 7.5), with or without a natural or synthetic tea polyphenol. After incubation, production of hydrolyzed AMC groups was measured using a multi-well plate VERSAFLUOR Fluorometer with an excitation filter of 380 nm and an emission filter of 460 nm.
(−)-EGCG at 1 μM was incubated with eukaryotic 20S proteasome (0.02 μg) and suc-LLVY-AMC (20 μM) for the times indicated in FIG. 7. The chymotrypsin activity was measured and graphed in FIG. 7. Values are means from 4 independent experiments, and error bars represent standard deviations.
In the second experiment (−)-EGCG at 1 μM was pre-incubated with (SDS-pre) or without 0.01% SDS (no SDS) for 1 hour, followed by addition of eukaryotic 20S proteasome (0.02 μg) and suc-LLVY-AMC (20 μM). “SDS-post” represents the same treatment as “no SDS” except 0.01% SDS was added 1 hour after addition of the proteasome, (−)-EGCG and the substrate. AMC liberation was measured by fluorescence at each indicated time point and the percentage of chymotrypsin activity was determined. Values are means from 4 independent experiments, and error bars represent standard deviations.

[2] = test system: VA-13 cells; assay: Western blot of p27 in SV40-transformed VA-13 fibroblasts; type: cell-based, human; conditions: 25 μM, 12 hours
Experimental: (§2) Cell Culture, Cell Extract Preparation, and Western Blot Assay. Human leukemia Jurkat T and prostate cancer LNCaP cells were cultured in RPMI 1640 medium supplemented with 10% fetal calf serum, 100 units/ml of penicillin, and 100 μg/ml streptomycin. Human immortalized, non-transformed NK cells (YT cell line) (38) were cultured in RPMI 1640 supplemented with 1 mM MEM sodium pyruvate solution, 0.1 mM MEM non-essential amino acids solution, 10% fetal calf serum. 100 units/ml penicillin, and 100 μg/ml streptomycin. Normal (WI-38) and simian virus 40 (SV40)-transformed (VA-13) human fibroblasts were grown in Dulbecco's modified Eagle's medium supplemented with 10% fetal calf serum, 100 units/ml of penicillin and 100 μg/ml of streptomycin. All cells were maintained at 37° C. in a humidified incubator with an atmosphere of 5% CO2. A whole cell extract was prepared in accordance with An et al. (An, B. et al. Cell Death Differ, 1998, 5:1062-75). Briefly, cells were harvested, washed with PBS twice, and homogenized in a lysis buffer [50 mM Tris-HCl (pH 8.0), 5 mM EDTA, 150 mM NaCl, 0.5% NP-40, 0.5 mM phenylmethylsulfonyl fluoride, and 0.5 mM dithiothreitol] for 30 min at 4° C. Afterwards, lysates were centrifuged at 12,000×g for 15 min at 4° C., and the supernatants were collected as whole cell extracts. Equal amounts of protein extract (60 μg) were resolved by SDS-polyacrylamide gel electrophoresis and transferred to a nitrocellulose membrane using a Semi-Dry Transfer system (BIO-RAD, Hercules, Calif.). Jurkat T, LNCaP, or DU-145 cells were treated with various concentrations of synthetic or natural tea polyphenols for indicted hours. The enhanced chemiluminescence (ECL) Western blot analysis was then performed using specific antibodies to the proteins of interest (p^27kip, IκB-α, PARP, Bax or actin). The ratio of p27 or IκB-α to the corresponding actin was determined by scanning intensities of the protein bands.
Normal WI-38 and SV40-transformed VA-13 cell lines were treated with 25 μM of (−)-EGCG, (−)-EGCG-amide, (+)-EGCG, (+)-EGCG-amide, or GTP-1 for either 12 hours or 36 hours.

[3] = test system: LNCaP cells; assay: Western blot of proteasome target proteins in LNCaP cells; type: cell-based, human; conditions: 50 μM, 3 to 12 hours
Experimental: as §2
To investigate whether (−)-EGCG-amide and (+)-EGCG-amide inhibit intact tumor cell proteasome activity, human prostate cancer LNCaP cells were treated with 25 μM of (−)- or (+)-EGCG-amide for up to 9 hours, followed by measurement of p27, IκB-α and Bax, three well-known proteasome target proteins (Pagano, M. et al. Science, 1995, 269:682-685; An, B. et al. Cell Death Differ, 1998, 5:1062-75; Sun, J. et al. Cancer Res, 2001, 61:1280-1284; Palombella, V. J. et al. Cell, 1994, 78:773-785; Thompson, J. E. et al. Cell, 1995, 80:573-582; Perkins, N. D. Trends Biochem Sci, 2000, 25:434-440; Chang, Y. C. et al. Cell Growth Differ, 1998, 9:79-84; Li, B. and Dou, Q. P. Proc Natl Acad Sci USA, 2000, 97:3850-3855; Nam, S. et al. Cancer Epidemiol Biomarkers Prey, 2001, 10:1083-1088). In this experiment (−)-EGCG and (+)-EGCG were used as positive controls.
Having determined that the synthetic GTP-1 to −5 analogs are able to inhibit the proteasomal chymotrypsin-like activity in vitro (FIG. 8), these compounds were investigated for their potency in inhibiting intact tumor cellular proteasome activity. To do so, human prostate cancer LNCaP cells were treated with one of these compounds for the indicated hours, followed by measuring levels of proteasome target proteins, p27, IκB-α, and Bax, and polyubiquitinated proteins.

[4] = molecular target: T2, purified 20S proteasome (UniProt G1T4Q9); assay: Inhibition of chymotrypsin-like activity of purified 20S proteasome (source not stated); type: biochemical; conditions: chymotrypsin-like activity of purified 20S proteasome
T2 construct: IC50; other: chymotrypsin-like activity of purified 20S proteasome
Experimental: as §1

[5] = test system: LNCaP cells; assay: Soft agar colony formation assay; type: cell-based, human; conditions: 50 μM, 14 day-incubation
Experimental: Soft Agar Assay. The soft agar assay was performed according to Smith et al. (Smith, D. M. et al. Mol Med, 2002, 8:382-392) with a few modifications. In brief, in a six-well plate, a bottom feeder layer (0.6% agar) was prepared with DMEM media containing 10% fetal bovine serum, 100 units/ml penicillin, and 100 μg/ml streptomycin. A top layer (0.3% agar) was prepared with DMEM and the same media as described above but containing 2×10^4 prostate cancer LNCaP cells and indicated analogs or DMSO as a control. Plates were incubated at 37° C. in 5% CO2 in a humidified incubator for two weeks. MTT (1 mg/ml) was added to each well and incubated overnight to allow complete formation of purple formazan crystals. The plates were then scanned and photographed, and the number of colonies was quantified by QUANTITY ONE v.4.0.3 software (Bio-Rad, Hercules, Calif.).
The […] effects of several GTP analogs were investigated with a soft agar assay that measures the transforming activity of human tumor cells. LNCaP cells were plated in soft agar (see Materials and Methods) along with 50 μM of GTP-1, -2, -3, (−)-EGCG (as a positive control; Smith, D. M. et al. Mol Med, 2002, 8:382-392, 2002), or the solvent (as a negative control), followed by a 14 day-incubation to allow for colony formation (FIGS. 12A and 12B).
In a second experiment, LNCaP cells were plated in soft agar along with 10 μM of each indicated GTP or solvent (H2O), followed by a 14 day-incubation to allow for colony formation (FIG. 21A). […] Colonies were quantified with an automated counter and presented as mean values from triplicate independent experiments. Error bars denote standard deviations.

[6] = molecular target: purified 20S proteasome (UniProt Q9P992); assay: Inhibition of chymotrypsin-like activity of purified 20S proteasome (source not stated); type: biochemical; set-up: other: 1 μM; other: 10 μM
Chain of purified 20S proteasome (UniProt Q9P992) (Q9P992 whole entry): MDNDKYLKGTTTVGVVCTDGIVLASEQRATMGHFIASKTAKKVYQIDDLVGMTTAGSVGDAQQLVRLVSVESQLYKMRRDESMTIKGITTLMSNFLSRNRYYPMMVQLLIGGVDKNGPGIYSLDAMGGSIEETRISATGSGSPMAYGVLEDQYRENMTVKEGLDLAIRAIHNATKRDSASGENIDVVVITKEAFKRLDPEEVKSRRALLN
Experimental: as §1

## O=C(O[C@@H]1Cc2c(O)cc(O)cc2O[C@@H]1c1ccc(O)c(O)c1)c1cc(O)c(O)c(O)c1 [(−)-ECG]
[1]; chymotrypsin-like activity, rabbit 20S proteasome
  IC50: 0.71 µM

## O=C(O[C@H]1CCCC[C@H]1OC(=O)c1cc(O)c(O)c(O)c1)c1cc(O)c(O)c(O)c1 [GTP-1]
[2]
  levels of p27 protein: significantly increased levels of p27 protein
[3]
  levels of polyubiquitinated proteins: caused accumulation of polyubiquitinated proteins
  levels of proteasome target proteins (p27, IκB-α): increased levels of p27, IκB-α, and Bax proteins at as early as 3 hours
[4]
  IC50: 1.9 µM
[5]
  colony formation (LNCaP transformation capability): completely blocked LNCaP transformation capability

## O=C(N[C@H]1CCCC[C@H]1NC(=O)c1cc(O)c(O)c(O)c1)c1cc(O)c(O)c(O)c1 [GTP-2]
[4]
  IC50: 2.5 µM
[5]
  colony formation (LNCaP transformation capability): completely blocked LNCaP transformation capability

## O=C(N[C@H]1CCCC[C@@H]1NC(=O)c1cc(O)c(O)c(O)c1)c1cc(O)c(O)c(O)c1 [GTP-3]
[3]
  levels of Bax protein: transiently increased levels of Bax protein
  levels of polyubiquitinated proteins: greatly increased levels of p27, IκB-α, and ubiquitinated proteins
  levels of proteasome target proteins (p27, IκB-α): greatly increased levels of p27, IκB-α, and ubiquitinated proteins
[4]
  IC50: 1.5 µM
[5]
  colony formation (LNCaP transformation capability): completely blocked LNCaP transformation capability

## CCCC[C@@H](C=O)NC(=O)[C@H](CC(C)C)NC(=O)[C@H](CC(C)C)NC(C)=O [LLnL, reference compound] (Ac-Leu-Leu-[Nle]-aldehyde)
[6]; 1 μM
  inhibition of proteasomal activity: 20%
[6]; 10 μM
  inhibition of proteasomal activity: 70%

## O=c1c(-c2ccc(O)cc2)coc2cc(O)cc(O)c12 [genistein]
[1]; chymotrypsin-like activity of purified 20S proteasome
  IC50: 26 µM
